PMC5653977 (EMBO Molecular Medicine, 2017)
Counter-ions that a name gives are not always drawn.

Each compound was assayed on NRG1-ERBB4 signaling (assay: Nrg1-ERBB4-PIK3R1 split TEV co-culture compound screen of the NIH Clinical Collection). Details: not given.
Assay type: cell-based, human

| Structure (SMILES) | Z-SCORE |
| --- | --- |
| O=P1(N(CCCl)CCCl)NCCCO1 (centres unmarked) [Cytoxan, reference compound] | -0.97 |
| CC(C)c1cccc(C(C)C)c1O [Propofol, reference compound] | -0.98 |

Same assay, conditions: NIH Clinical Collection NCC-003 raw data; compounds ranked by Z-score; 'flagged' given instead of a Z-score

| Structure (SMILES) | Z-SCORE |
| --- | --- |
| COC(=O)C1=C(C)NC(C)=C(C(=O)OC(C)C)C1c1cccc2nonc12 (centres unmarked) [ISRADIPINE] | -1.94 |
| CC(NC(C)(C)C)C(=O)c1cccc(Cl)c1 (centres unmarked) [BUPROPION HYDROCHLORIDE] | -2.1 |
| CC(C)C[C@H](NC(=O)[C@@H](O)[C@H](N)Cc1ccccc1)C(=O)O [BESTATIN] | -1.11 |
| CC(=O)[C@]1(O)Cc2c(O)c3c(c(O)c2[C@@H](O[C@H]2C[C@H](N)[C@H](O)[C@H](C)O2)C1)C(=O)c1ccccc1C3=O [IDARUBICIN HCl] | flagged |
| Cc1c(OCC(F)(F)F)ccnc1C[S+]([O-])c1nc2ccccc2[nH]1 (centres unmarked) [LANSOPRAZOLE] | -1.16 |

Same assay, conditions: compound screen of the NIH Clinical Collection, sheet raw data NCC-003; compounds ranked by Z-score

| Structure (SMILES) | Z-SCORE |
| --- | --- |
| COc1ccc(-c2oc3c(CC=C(C)C)c(O[C@@H]4O[C@H](CO)[C@@H](O)[C@H](O)[C@H]4O)cc(O)c3c(=O)c2O[C@@H]2O[C@@H](C)[C@H](O)[C@@H](O)[C@H]2O)cc1 [ICARIIN] | -0.37 |
| CCN(CC)C(=S)SSC(=S)N(CC)CC | -0.22 |
| CCCCc1nc(Cl)c(CO)n1Cc1ccc(-c2ccccc2-c2nn[nH]n2)cc1 [LOSARTAN Potassium] | -0.12 |
| C[C@H](CCC(=O)O)[C@H]1CC[C@H]2[C@@H]3C(=O)C[C@@H]4CC(=O)CC[C@]4(C)[C@H]3CC(=O)[C@]12C [DEHYDROCHOLIC ACID] | -0.51 |
| COc1cc(CNC(=O)CCCC/C=C/C(C)C)ccc1O [Capsaicin] | -0.46 |
| Cc1nc2ccccn2c(=O)c1CCN1CCC(C(=O)c2ccc(F)cc2)CC1 [PIRENPERONE] | 1.82 |
| COc1ccc(CCN)cc1OC [Homoveratrylamine] | -0.37 |
| CCCCC[C@H](O)/C=C/[C@H]1[C@H](O)CC(=O)[C@@H]1CCCCCCC(=O)O [Prostaglandin E1] | 0.18 |
| O=C1Nc2ccccc2/C1=C1/Nc2ccccc2C1=O [Indirubin] | 0.67 |
| Cc1occc(=O)c1O [118-71-8] | 0.13 |
| CN(C)CCOC(C)(c1ccccc1)c1ccccn1.O=C(O)CCC(=O)O (centres unmarked) [Doxylamine succinate salt] | 0.36 |
| Cc1cccc(C)c1NC(=O)C1CCCCN1C (centres unmarked) [MEPIVACAINE HYDROCHLORIDE] | -0.39 |
| Cc1ccc(O)c([C@H](CCN(C(C)C)C(C)C)c2ccccc2)c1 [TOLTERODINE TARTRATE] | -1.01 |
| CN1CC[C@]2(c3cccc(O)c3)Cc3nc4ccccc4cc3C[C@H]2C1 [SB 205607] | 0.19 |
| CC(C)(C)NC(=O)[C@@H]1CN(Cc2cccnc2)CCN1C[C@@H](O)C[C@@H](Cc1ccccc1)C(=O)N[C@H]1c2ccccc2C[C@H]1O [INDINAVIR SULPHATE] | 0.35 |
| COC(=O)C1=C(C)NC(C)=C(C(=O)OC)C1c1ccccc1[N+](=O)[O-] [NIFEDIPINE] | 2.68 |

| Structure (SMILES) | Z-SCORE |
| --- | --- |
| Oc1ccc(C2CNCCc3c2cc(O)c(O)c3Cl)cc1 (centres unmarked) [FENOLDOPAM MESYLATE] | -0.37 |
| CC(C)(C)NCC(O)c1ccc(O)c(CO)c1.CC(C)(C)NCC(O)c1ccc(O)c(CO)c1.O=S(=O)(O)O (centres unmarked) [SALBUTAMOL SULFATE] | -0.61 |
| CC(C)NCC(O)COc1ccc(COCCOC(C)C)cc1 (centres unmarked) [BISOPROLOL FUMARATE] | 0.59 |
| C[C@]12C=CC(=O)C=C1CC[C@@H]1[C@@H]2[C@@H](O)C[C@@]2(C)[C@H]1CC[C@]2(O)C(=O)COC(=O)CCC(=O)[O-].[Na+] | 0.67 |
| O=C(NCCO[N+](=O)[O-])c1cccnc1 [NICORANDIL] | -0.09 |
| COc1ccc(C(=O)NCc2ccc(OCCN(C)C)cc2)cc1OC.Cl [ITOPRIDE HCl] | 1.68 |
| NC(=O)c1cccnc1 [NICOTINAMIDE] | 2.52 |
| NC1CCN(c2nc3c(cc2F)c(=O)c(C(=O)O)cn3-c2ccc(F)cc2F)C1 (centres unmarked) [TOSUFLOXACIN TOSYLATE] | 0.08 |
| Cc1ncc([N+](=O)[O-])n1CCO [METRONIDAZOLE] | -0.28 |
| CNCC[C@@H](Oc1ccccc1C)c1ccccc1 [ATOMOXETINE HCl] | 0.83 |
| CN1[C@@H]2CC[C@H]1C[C@@H](OC(=O)c1c[nH]c3ccccc13)C2 [TROPISETRON HCl] | 0.72 |
| C=C1/C(=C\C=C2/CCC[C@]3(C)[C@@H]([C@H](C)CCCC(C)(C)O)CC[C@@H]23)C[C@@H](O)C[C@@H]1O [CALCITRIOL] | -0.48 |
| CNCC(O)c1ccc(O)cc1 (centres unmarked) [SYNEPHRINE] | -0.41 |
| COc1ccc2[n-]c([S+]([O-])Cc3ncc(C)c(OC)c3C)nc2c1.COc1ccc2[n-]c([S+]([O-])Cc3ncc(C)c(OC)c3C)nc2c1.[Mg+2] (centres unmarked) [ESOMEPRAZOLE Mg] | 0.45 |
| O=C1N(c2ccccc2)c2ccccc2C1(Cc1ccncc1)Cc1ccncc1 | -0.78 |
| Nc1ccc(O)c(C(=O)O)c1 [5-Amino-2-hydroxy-benzoic acid] | 1.62 |

Same assay, conditions: compounds at 10 μM, 24 h; PC12 split TEV assay cells co-cultured with Nrg1-expressing PC12 cells; analysed with cellHTS2

| Structure (SMILES) | Z-SCORE |
| --- | --- |
| OCCN1CCN(CCCN2c3ccccc3Sc3ccc(Cl)cc32)CC1 [PERPHENAZINE, reference compound] | 0.23 |
| CCn1cc(C(=O)O)c(=O)c2cc(F)c(N3CCNCC3)cc21 [NORFLOXACIN, reference compound] | -0.08 |
| C[C@]12CCC(=O)C=C1CC[C@@H]1[C@@H]2[C@@H](O)C[C@@]2(C)[C@H]1CC[C@]2(O)C(=O)COC(=O)CCC(=O)O [HYDROCORTISONE HEMISUCCINATE, reference compound] | -1.64 |
| CN(C)C(=O)C(CCN1CCC(O)(c2ccc(Cl)cc2)CC1)(c1ccccc1)c1ccccc1 [Imodium, reference compound] | -0.18 |
| CC(=O)OCC(=O)[C@@]12OC3(CCCC3)O[C@@H]1C[C@H]1[C@@H]3CCC4=CC(=O)C=C[C@]4(C)[C@@]3(F)[C@@H](O)C[C@@]12C [AMCINONIDE, reference compound] | -1.01 |
| c1ccc2c(c1)CCCC2C1=NCCN1 (centres unmarked) [Tyzine, reference compound] | 0.46 |
| COc1ccc(OC)c(C(O)CNC(=O)CN)c1 (centres unmarked) [Pro-Amatine, reference compound] | 0.01 |
| CCN(CC)CCOC(=O)C1(C2CCCCC2)CCCCC1 [Dicyclomine hydrochloride, reference compound] | -2.03 |
| Nc1nc2c(ncn2COCCO)c(=O)[nH]1 [Acyclovir, reference compound] | 0.99 |
| CC(=O)[C@H]1CC[C@H]2[C@@H]3C[C@H](C)C4=CC(=O)CC[C@]4(C)[C@H]3[C@@H](O)C[C@]12C [Medrysone, reference compound] | -1.74 |
| CC[C@H]1OC(=O)[C@H](C)[C@@H](O[C@H]2C[C@@](C)(OC)[C@@H](O)[C@H](C)O2)[C@H](C)[C@@H](O[C@@H]2O[C@H](C)C[C@H](N(C)C)[C@H]2O)[C@](C)(O)C[C@@H](C)CN(C)[C@H](C)[C@@H](O)[C@]1(C)O [Azithromycin, reference compound] | 0.06 |
| CC(C)NCC(O)c1cc(O)cc(O)c1 (centres unmarked) [Metaproterenol, reference compound] | -0.11 |
| CO/N=C(\C(=O)N[C@@H]1C(=O)N2C(C(=O)O)=C(COC(N)=O)CS[C@H]12)c1ccco1 [Cefuroxime, reference compound] | 0.08 |
| CN(C)c1nc(N(C)C)nc(N(C)C)n1 [Altretamine, reference compound] | -0.4 |
